# Source: US20120277177A1, “CRYSTALLINE PHASES OF 5,6-DICHLORO-2-(ISOPROPYLAMINO)-1-BETA-RIBOFURANOSYL-1H-BENZIMIDAZOLE” (priority 2010, published 2012)
# Test: Solid-state stability on storage in the well-plate under ambient temperature and relative humidity
# Assay type: physicochemical
# Settings: for form change (desolvation / transformation) after storage: storage in the well-plate under ambient temperature and relative humidity for approximately 3 weeks
# Source text: The invention relates to the anhydrate crystalline Form VIII, hydrates and solvates both in pure form and in admixture with other anhydrate forms, hydrates or solvates of the compound of formula (I).
SMILES,form change (desolvation / transformation) after storage,form change (transformation) after storage (approximately 4 weeks of storage under ambient conditions)
"CC(C)Nc1nc2cc(Cl)c(Cl)cc2n1[C@H]1O[C@@H](CO)[C@H](O)[C@@H]1O [n-propyl acetate solvate, 5,6-dichloro-2-(isopropylamino)-1-(β-L-ribofuranosyl)-1H-benzimidazole]",partially desolvated and transformed to the anhydrate Form VI,–
"CC(C)Nc1nc2cc(Cl)c(Cl)cc2n1[C@H]1O[C@@H](CO)[C@H](O)[C@@H]1O [acetonitrile solvate, 5,6-dichloro-2-(isopropylamino)-1-(β-L-ribofuranosyl)-1H-benzimidazole]",completely desolvated and transformed to the anhydrate Form V,–
"CC(C)Nc1nc2cc(Cl)c(Cl)cc2n1[C@H]1O[C@@H](CO)[C@H](O)[C@@H]1O [t-butylmethyl ether solvate 2, 5,6-dichloro-2-(isopropylamino)-1-(β-L-ribofuranosyl)-1H-benzimidazole]",–,partially transformed into Form VI
